Measured values published in patent US20240358727A1, “MICROSCALE THERMOPHORESIS TO EVALUATE CHANNEL LIPID INTERACTIONS AND METHODS OF TREATING NAV CHANNELS RELATED DISEASES” (Northeastern University, priority 2023, published 2024).

Target: T1, Nav1.4 (Rattus norvegicus, UniProt P15390)
T1 construct: expressed in transfected cells; host or cells: HEK293T (ATCC CRL-3216)
Test: Whole-cell patch clamp of rNav1.4 + Navβ1 in HEK293T cells with optogenetic PI-phosphatases and diC8PI(4,5)P2 in the pipette
Type: cell-based
Conditions: for ILATE: % of IPEAK
Description: Purified diC8PI(4,5)P2 was purchased from Echelon Biosciences. For oocyte studies, plasmid vectors were linearized after the Xenopus β-globulin domain of each construct, verified by gel electrophoresis, and transcribed in vitro using the mMESSAGE mMACHINE T7 Transcription Kit (Thermo Fisher Scientific) to generate cRNA according to the manufacturer's protocol. Rat Nav1.4 (SCN4 Å; NM_013178.2) was handled in pBud, a CMV driven vector. To study Nav1.4 currents, the plasmid was used in concert with Navβ1 (SCN1B, isoform b; NM_001037) in pRAT, a CMV driven vector. The inactivation deficient mutant, Nav1.4-WCW was handled in pCap. CRY2-Sac2 was subcloned into pMAX(+) for expression in mammalian cells, or the generation of cRNA for use in Xenopus oocytes. The open reading frame of pseudojanin was designed with an N-terminal CRY2-tag in the pMAX(+) vector and was generated by Genscript (Piscataway, NY).
Human embryonic kidney (HEK293T) cells were acquired from American Type Culture Collection (ATCC, Cat #CRL-3216) and were maintained in Dulbecco's modified Eagle's medium (ATCC) supplemented with 100 units/ml penicillin, 100 μg/ml streptomycin, and 10% (vol/vol) fetal bovine serum. Cells were routinely confirmed to be mycoplasma free via PCR and Hoescht stain. The cells were incubated in a 37° C., humified incubator supplemented with 5% CO2. For our experiments, cells were seeded on glass coverslips in 35 mm culture dishes at least one day before transfection. Cells were transiently transfected with rNav1.4, Navβ1, CIBN-CAAX and CRY2-5-PtaseOCRL or CRY2-pseudojanin, along with the near-infrared PI(4,5)P2 biosensor iRFP-PHPLCδ1 as indicated, in OptiMEM using polyethyleneimine (PEI) for 1-2 hours at a ratio of 1 μg of DNA to 4 μL PEI. The near red fluorescent protein, mCherry, was typically used as a transfection marker. The cells were studied 24-48 hours after transfection.
Whole-cell patch clamp. HEK293T cells were studied by whole cell patch-clamp. Currents were recorded with a Tecella Pico-2 amplifier (Tecella) controlled using WinWCP software (University of Strathclyde). Currents were low pass (Bessel) filtered at 9 kHz and digitized at 50 kHz. […] The cells were perfused using a multichannel gravity-driven perfusion manifold (Warner) with an extracellular solution containing (in mM): 130 NaCl, 5 CsCl, 1.2 MgCl2·6H2O, 1.5 CaCl2), 8 Glucose, 10 HEPES. Data was collected from cells with a series resistance less than 15 MQ. The junction potential was less than 3 mV and was not compensated.
Current-voltage (I-V) relationships were evoked from a holding potential of −90 mV by 400 ms test pulses between −80 and 50 mV, in 5 mV increments. Steady-state inactivation was studied by holding the cells at −140 mV and then comparing currents evoked by 50 ms test pulses between −140 mV and 30 mV to those evoked by a 100 ms prepulse to […]. A 10 s interpulse interval was used in both cases. Normalized peak current values are plotted against the prepulse potential (mV). To quantify voltage-dependence, the data were normalized, plotted against the driving force to generate normalized conductance-voltage relationships (G-V) that were fit using a Boltzmann function, I=IMAX/(1+exp[V−V ½/K]), where IMAX is the maximum current and K is the slope factor. Recovery from fast inactivation was studied by holding cells at −100 mV and comparing currents evoked by a pair of 50 ms test step to −30 mV separated by an interpulse interval that increased in duration by 5 ms increments per sweep. The time constant for recovery from inactivation (τinact) was obtained from mono-exponential fits of the normalized current amplitude to the recovery time using It=Imax+A[e^−t/τ], where ‘A’ is the amplitude of components and ‘t’ is time. Whole-cell currents were normalized to cell capacitance. Mean±SEM capacitance values were 12±4 pF for HEK293T cells. […]

[1] = 200 μM diC8-PIP2 in patch pipette
[2] = 200 μM diC8PI(4,5)P2, CRY2-PJ cells
[3] = 200 μM diC8PI(4,5)P2 vs CRY2-PJ BL
[4] = CRY2-5POCRL, BL + 200 μM diC8PI(4,5)P2
[5] = CRY2-5POCRL, Control + 200 μM diC8PI(4,5)P2
[6] = CRY2-PJ, BL + 200 μM diC8PI(4,5)P2
[7] = CRY2-PJ, Control + 200 μM diC8PI(4,5)P2

T1 sequence (P15390 whole entry): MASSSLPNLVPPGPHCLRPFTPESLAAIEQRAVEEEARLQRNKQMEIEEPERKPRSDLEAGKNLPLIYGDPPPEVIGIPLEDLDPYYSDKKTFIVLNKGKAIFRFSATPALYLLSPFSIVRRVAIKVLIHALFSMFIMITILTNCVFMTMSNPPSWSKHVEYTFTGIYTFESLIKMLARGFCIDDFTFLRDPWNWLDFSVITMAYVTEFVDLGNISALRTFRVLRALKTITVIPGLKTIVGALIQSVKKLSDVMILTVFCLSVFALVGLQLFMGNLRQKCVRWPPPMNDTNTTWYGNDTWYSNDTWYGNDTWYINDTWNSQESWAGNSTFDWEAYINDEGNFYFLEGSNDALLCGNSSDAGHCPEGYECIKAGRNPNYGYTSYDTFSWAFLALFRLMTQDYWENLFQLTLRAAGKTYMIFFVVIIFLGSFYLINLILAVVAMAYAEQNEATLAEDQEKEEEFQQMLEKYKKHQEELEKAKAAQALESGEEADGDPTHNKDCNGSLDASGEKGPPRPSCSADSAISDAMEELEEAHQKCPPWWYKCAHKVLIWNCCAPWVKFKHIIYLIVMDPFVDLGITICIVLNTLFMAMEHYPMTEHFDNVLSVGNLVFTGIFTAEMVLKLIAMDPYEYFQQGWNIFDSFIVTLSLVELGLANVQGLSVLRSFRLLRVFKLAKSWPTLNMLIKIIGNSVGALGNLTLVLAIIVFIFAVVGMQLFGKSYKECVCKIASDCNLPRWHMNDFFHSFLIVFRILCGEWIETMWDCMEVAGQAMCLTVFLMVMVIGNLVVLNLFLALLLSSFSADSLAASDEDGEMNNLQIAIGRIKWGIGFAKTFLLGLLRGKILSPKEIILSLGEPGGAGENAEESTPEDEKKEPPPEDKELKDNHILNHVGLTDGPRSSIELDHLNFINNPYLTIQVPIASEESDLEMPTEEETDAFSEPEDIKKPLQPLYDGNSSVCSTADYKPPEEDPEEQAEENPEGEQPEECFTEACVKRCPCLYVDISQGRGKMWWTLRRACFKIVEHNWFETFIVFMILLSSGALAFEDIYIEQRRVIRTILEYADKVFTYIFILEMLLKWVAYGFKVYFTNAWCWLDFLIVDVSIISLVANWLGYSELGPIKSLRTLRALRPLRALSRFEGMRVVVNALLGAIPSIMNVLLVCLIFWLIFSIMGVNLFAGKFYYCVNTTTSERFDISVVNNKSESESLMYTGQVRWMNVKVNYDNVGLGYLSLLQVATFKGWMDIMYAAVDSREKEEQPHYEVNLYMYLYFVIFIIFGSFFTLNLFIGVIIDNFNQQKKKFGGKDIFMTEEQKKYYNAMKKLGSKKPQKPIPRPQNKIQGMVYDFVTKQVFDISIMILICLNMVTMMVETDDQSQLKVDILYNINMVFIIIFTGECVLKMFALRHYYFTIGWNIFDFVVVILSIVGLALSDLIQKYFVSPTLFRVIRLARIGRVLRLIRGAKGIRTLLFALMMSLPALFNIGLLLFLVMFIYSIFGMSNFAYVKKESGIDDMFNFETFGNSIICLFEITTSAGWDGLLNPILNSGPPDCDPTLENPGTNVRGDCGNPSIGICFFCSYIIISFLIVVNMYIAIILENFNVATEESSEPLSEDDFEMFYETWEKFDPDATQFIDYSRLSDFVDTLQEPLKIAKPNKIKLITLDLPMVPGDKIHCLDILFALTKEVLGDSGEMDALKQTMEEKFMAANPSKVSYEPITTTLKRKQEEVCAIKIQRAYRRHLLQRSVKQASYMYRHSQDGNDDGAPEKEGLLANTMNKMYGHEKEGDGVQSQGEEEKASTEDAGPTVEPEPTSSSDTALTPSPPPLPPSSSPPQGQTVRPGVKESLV
T1 sequence (Q07699 19-218 partner): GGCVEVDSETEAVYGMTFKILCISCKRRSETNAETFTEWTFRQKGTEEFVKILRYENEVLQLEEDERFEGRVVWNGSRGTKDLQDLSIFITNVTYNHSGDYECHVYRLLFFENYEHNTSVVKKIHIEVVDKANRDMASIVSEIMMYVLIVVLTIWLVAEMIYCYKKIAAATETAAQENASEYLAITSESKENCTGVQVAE

## CCCCCCCC(=O)OC[C@H](COP(=O)(O)O[C@@H]1[C@H](O)[C@H](O)[C@@H](OP(=O)(O)O)[C@H](OP(=O)(O)O)[C@H]1O)OC(=O)CCCCCCC [diC8-PIP2]
[1]
  effect on V½ACT of Nav1.4: rightward shift
  effect on V½SSI of Nav1.4: no effect
200 μM diC8PI(4,5)P2
  effect on CRY2-5POCRL effects on voltage-dependent gating: precluded
  effect on CRY2-PJ photoactivation effects on V½act: ameliorated
200 μM diC8PI(4,5)P2, CRY2-5POCRL cells
  right shift in V½act: ~5 mV
200 μM diC8PI(4,5)P2, CRY2-PJ
  effect on increase in the magnitude of the window current: abolished
[2]
  right-shift in V½SSI compared to untreated cells: ~3 mV
  right-shift in V½act compared to untreated cells: −5.5 mV
200 μM diC8PI(4,5)P2 vs CRY2-5POCRL BL
  overall excursion in mean V½ACT between diC8PI(4,5)P2 treated cells and control cells after photoactivation: −12.5±3 mV
[3]
  change in mean V½act between diC8PI(4,5)P2 treated cells and control cells after dephosphorylation: −16±2 mV
  shift in mean V½SSI between diC8PI(4,5)P2 treated cells and control cells after dephosphorylation: −5.4±2 mV
[4]
  KAct: 5.2 ± 0.3 mV
  KSSI: −5.1 ± 1^ mV
  V½SSI: −57 ± 1 mV
  V½act: −32 ± 1 mV
  tau (fast inactivation): 7.4 ± 0.6 ms
  ILATE: 0.27 ± 0.02%
CRY2-5POCRL, BL + 200 μM diC8PI(4,5)P2, −20 mV
  IPEAK: −268 ± 25 pA/pF
CRY2-5POCRL, BL + 200 μM diC8PI(4,5)P2, −40 mV
  IPEAK: −202 ± 21 pA/pF
CRY2-5POCRL, BL + 200 μM diC8PI(4,5)P2, −60 mV
  IPEAK: −19 ± 4 pA/pF
[5]
  KAct: 5.0 ± 0.2 mV
  KSSI: −5.0 ± 2^ mV
  V½SSI: −58 ± 2 mV
  V½act: −32 ± 1 mV
  tau (fast inactivation): 6.0 ± 0.3 ms
  ILATE: 0.26 ± 0.02%
CRY2-5POCRL, Control + 200 μM diC8PI(4,5)P2, −20 mV
  IPEAK: −274 ± 32 pA/pF
CRY2-5POCRL, Control + 200 μM diC8PI(4,5)P2, −40 mV
  IPEAK: −186 ± 28 pA/pF
CRY2-5POCRL, Control + 200 μM diC8PI(4,5)P2, −60 mV
  IPEAK: −23 ± 6 pA/pF
[6]
  KAct: 5.0 ± 1.0 mV
  KSSI: −5.1 ± 0.5 mV
  V½SSI: −54 ± 2 mV
  V½act: −33 ± 4 mV
  tau (fast inactivation): 5.1 ± 0.3 ms
  ILATE: 0.38 ± 0.03%
CRY2-PJ, BL + 200 μM diC8PI(4,5)P2, −20 mV
  IPEAK: −272 ± 24 pA/pF
CRY2-PJ, BL + 200 μM diC8PI(4,5)P2, −40 mV
  IPEAK: −209 ± 22 pA/pF
CRY2-PJ, BL + 200 μM diC8PI(4,5)P2, −60 mV
  IPEAK: −23 ± 3 pA/pF
[7]
  KAct: 4.0 ± 0.7 mV
  KSSI: −4.2 ± 1.0 mV
  V½SSI: −55 ± 4 mV
  V½act: −33 ± 3 mV
  tau (fast inactivation): 4.7 ± 0.2 ms
CRY2-PJ, Control + 200 μM diC8PI(4,5)P2, −20 mV
  IPEAK: −264 ± 18 pA/pF
CRY2-PJ, Control + 200 μM diC8PI(4,5)P2, −40 mV
  IPEAK: −194 ± 24 pA/pF
CRY2-PJ, Control + 200 μM diC8PI(4,5)P2, −60 mV
  IPEAK: −19 ± 2 pA/pF
CRY2-PJ, Control + 200 μM diC8PI(4,5)P2, pulse to −20 mV
  ILATE: 0.37 ± 0.1%
